Test results taken from US8193189B2, “Quinoxaline derivatives as tyrosine kinase activity inhibitors” (Novartis AG, priority 2007, dated 2012).

Legend:
GST-JAK1(866-1154) = biological target: T1, GST-JAK1(866-1154) (Homo sapiens, UniProt P23458); assay: EPK JAK-family kinases profiling assay (Caliper mobility shift), JAK1; format: biochemical; details: ATP 40 μM, 50 nM kinase
T1 construct: GST-JAK1(866-1154); made in house
Summary of the method: (§1)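 Turnover was read as substrate/product ratio after mobility-shift capillary-like separation of each reaction, run for 60 min at 30 °C with GST-tagged kinase domain, labelled peptide and ATP, and terminated with EDTA stop buffer.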

GST-JAK2(808-1132) = biological target: T2, GST-JAK2(808-1132) (Homo sapiens, UniProt O60674); assay: EPK JAK-family kinases profiling assay (Caliper mobility shift), JAK2; format: biochemical; details: ATP 20 μM, 1.8 nM kinase
T2 construct: GST-JAK2(808-1132); purchased Invitrogen (Carlsbad, USA) #4288
T2 sequence (O60674 808-1132): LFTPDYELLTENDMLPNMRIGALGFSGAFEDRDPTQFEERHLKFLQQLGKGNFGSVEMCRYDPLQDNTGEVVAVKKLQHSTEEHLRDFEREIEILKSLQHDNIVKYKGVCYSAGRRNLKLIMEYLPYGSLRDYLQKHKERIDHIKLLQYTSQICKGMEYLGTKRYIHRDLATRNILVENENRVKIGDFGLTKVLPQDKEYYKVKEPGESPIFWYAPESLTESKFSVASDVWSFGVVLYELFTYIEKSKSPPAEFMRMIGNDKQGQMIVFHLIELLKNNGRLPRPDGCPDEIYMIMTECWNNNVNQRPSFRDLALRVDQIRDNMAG
Summary of the method: as §1

GST-JAK3(811-1124) = biological target: T3, GST-JAK3(811-1124) (Homo sapiens, UniProt P52333); assay: EPK JAK-family kinases profiling assay (Caliper mobility shift), JAK3; format: biochemical; details: ATP 80 μM, 6 nM kinase
T3 construct: GST-JAK3(811-1124); made in house
T3 sequence (P52333 811-1124): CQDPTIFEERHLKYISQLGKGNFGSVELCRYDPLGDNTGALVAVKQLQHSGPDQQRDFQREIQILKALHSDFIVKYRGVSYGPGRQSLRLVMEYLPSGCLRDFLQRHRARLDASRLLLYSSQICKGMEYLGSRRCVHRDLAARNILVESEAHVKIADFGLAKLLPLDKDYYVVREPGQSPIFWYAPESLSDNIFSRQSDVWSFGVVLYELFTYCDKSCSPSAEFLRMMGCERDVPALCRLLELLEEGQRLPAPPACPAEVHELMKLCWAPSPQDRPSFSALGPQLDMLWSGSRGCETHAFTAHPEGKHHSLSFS
Summary of the method: as §1

GST-TYK2(888-1187) = biological target: T4, GST-TYK2(888-1187) (Homo sapiens, UniProt P29597); assay: EPK JAK-family kinases profiling assay (Caliper mobility shift), TYK2; format: biochemical; details: ATP 30 μM, 40 nM kinase
T4 construct: GST-TYK2(888-1187); made in house
T4 sequence (P29597 888-1187): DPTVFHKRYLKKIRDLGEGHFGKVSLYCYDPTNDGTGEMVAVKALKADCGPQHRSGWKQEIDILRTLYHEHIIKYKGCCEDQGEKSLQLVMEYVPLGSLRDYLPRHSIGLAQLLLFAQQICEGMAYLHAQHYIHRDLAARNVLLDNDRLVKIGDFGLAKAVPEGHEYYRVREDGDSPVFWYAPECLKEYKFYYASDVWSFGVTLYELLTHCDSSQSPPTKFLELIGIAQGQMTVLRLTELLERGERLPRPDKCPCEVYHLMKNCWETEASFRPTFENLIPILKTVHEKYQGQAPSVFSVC
Summary of the method: as §1

[1] = tested on: JAK/STAT pathway (JAK1/JAK2-dependent nuclear translocation of STAT1-GFP); assay: Inhibition of the JAK/STAT pathway: IFN-γ stimulated nuclear translocation of STAT1-GFP in HT1080 fibrosarcoma cells; format: cell-based; details: Homo sapiens, HT-1080; HT1080 STAT1-GFP cells, 100 ng/ml IFN-γ 2 hours, compound added 30 min before; read-out: STAT1translo IC50
Summary of the method: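 Readout is the nuclear-minus-cytoplasmic GFP-STAT1 intensity, imaged at 10× using Hoechst-defined nuclear masks over at least 1000 cells/well. Stably transfected HT1080 fibrosarcoma cells were pretreated 30 min with compound (final 0.003–10 μM, 0.1% DMSO) before IFN-γ challenge.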

T1 sequence (P23458 866-1154): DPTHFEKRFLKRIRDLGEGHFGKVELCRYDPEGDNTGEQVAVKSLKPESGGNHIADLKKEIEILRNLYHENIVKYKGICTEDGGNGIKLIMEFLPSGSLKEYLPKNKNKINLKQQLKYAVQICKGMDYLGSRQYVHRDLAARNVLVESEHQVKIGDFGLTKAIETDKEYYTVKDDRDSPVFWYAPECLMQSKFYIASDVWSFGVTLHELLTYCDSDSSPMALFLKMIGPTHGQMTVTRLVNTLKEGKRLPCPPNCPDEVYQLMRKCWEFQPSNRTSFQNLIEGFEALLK

| IC50 (GST-JAK1(866-1154)) [nM] | IC50 (GST-JAK2(808-1132)) [nM] | IC50 (GST-JAK3(811-1124)) [nM] | IC50 (GST-TYK2(888-1187)) [nM] | IC50 [1] [nM] | SMILES |
| --- | --- | --- | --- | --- | --- |
| 18 | < 3 | 73.5 | 40 | 105 | Cc1cc(-c2cnc3cccc(-c4cc(F)c(CN5CCS(=O)(=O)CC5)c(F)c4)c3n2)ccc1C(=O)N(C)CCN(C)C [Example 95, N-(2-Dimethylamino-ethyl)-4-{8-[4-(1,1-dioxido-thiomorpholin-4-ylmethyl)-3,5-difluoro-phenyl]-quinoxalin-2-yl}-2,N-dimethyl-benzamide] |
| 53 | < 3 | 260 | 50.5 | 35.5 | O=S1(=O)CCN(Cc2c(F)cc(-c3cccc4ncc(-c5cnn(C6CCNCC6)c5)nc34)cc2F)CC1 [Example 96, 8-[4-(1,1-Dioxido-thiomorpholin-4-ylmethyl)-3,5-difluoro-phenyl]-2-(1-piperidin-4-yl-1H-pyrazol-4-yl)-quinoxaline] |
| 720 | 19.5 | 9150 | 510 | 495 | O=C(c1c(F)cc(-c2cccc3ncc(-c4cnn(C5CCNCC5)c4)nc23)cc1F)N1CCOCC1 [Example 97, {2,6-Difluoro-4-[3-(1-piperidin-4-yl-1H-pyrazol-4-yl)-quinoxalin-5-yl]-phenyl}-morpholin-4-yl-methanone] |
| 870 | 22 | 4850 | 805 | 1360 | CS(=O)(=O)c1ccc(-c2cccc3ncc(-c4cnn(C5CCNCC5)c4)nc23)cc1F [Example 99, 8-(3-Fluoro-4-methanesulfonyl-phenyl)-2-(1-piperidin-4-yl-1H-pyrazol-4-yl)-quinoxaline] |
| 1220 | 74 | 5330 | 2730 | 31.5 | Cc1cc(-c2cnc3cccc(-c4cc(F)c(CN5CCS(=O)(=O)CC5)c(F)c4)c3n2)ccc1C(=O)N1CCC(N(C)C)CC1 [Example 102, (4-Dimethylamino-piperidin-1-yl)-(4-{8-[4-(1,1-dioxido-thiomorpholin-4-ylmethyl)-3,5-difluoro-phenyl]-quinoxalin-2-yl}-2-methyl-phenyl)-methanone] |
| 1150 | 30.5 | 3600 | 1200 | 824 | CCN1CCN(c2ccc(-c3cnc4cccc(-c5cc(F)c(CN6CCOCC6)c(F)c5)c4n3)cc2C)CC1 [Example 103, 8-(3,5-Difluoro-4-morpholin-4-ylmethyl-phenyl)-2-[4-(4-ethyl-piperazin-1-yl)-3-methyl-phenyl]-quinoxaline] |
| 52 | < 3 | 390 | 130 | 420 | COc1cc(-c2cnc3cccc(-c4cc(F)c(CN5CCOCC5)c(F)c4)c3n2)ccc1N1CCN(C)CC1 [Example 104, 8-(3,5-Difluoro-4-morpholin-4-ylmethyl-phenyl)-2-[3-methoxy-4-(4-methyl-piperazin-1-yl)-phenyl]-quinoxaline] |
| 810 | 32 | 1800 | 985 | 895 | COc1cc(-c2cnc3cccc(-c4ccc(C(=O)N5CCOCC5)c(C)c4)c3n2)ccc1N1CCN(C)CC1 [Example 105, (4-{3-[3-Methoxy-4-(4-methyl-piperazin-1-yl)-phenyl]-quinoxalin-5-yl}-2-methyl-phenyl)-morpholin-4-yl-methanone] |
| 365 | 82 | 195 | 1970 | 202 | COc1cc(-c2cnc3cccc(-c4cc(F)c(CN5CCS(=O)(=O)CC5)c(F)c4)c3n2)ccn1 [Example 106, 8-[4-(1,1-Dioxido-thiomorpholin-4-ylmethyl)-3,5-difluoro-phenyl]-2-(2-methoxy-pyridin-4-yl)-quinoxaline] |
| 1350 | 95.5 | 9800 | 2950 | 2470 | CN1CCN(c2ccc(-c3cnc4cccc(-c5cc(F)c(CN6CCOCC6)c(F)c5)c4n3)cn2)CC1 [Example 107, 8-(3,5-Difluoro-4-morpholin-4-ylmethyl-phenyl)-2-[6-(4-methyl-piperazin-1-yl)-pyridin-3-yl]-quinoxaline] |
| 5550 | 575 | > 10000 | 9300 | 1590 | CN(C)CCN(C)C(=O)c1ccc(-c2cnc3cccc(-c4cc(F)c(CN5CCOCC5)c(F)c4)c3n2)cn1 [Example 110, 5-[8-(3,5-Difluoro-4-morpholin-4-ylmethyl-phenyl)-quinoxalin-2-yl]-pyridine-2-carboxylic acid (2-dimethylamino-ethyl)-methyl-amide] |
| 920 | 105 | 9300 | 1700 | 1230 | CN(C)CCN(C)C(=O)c1ccc(-c2cnc3cccc(-c4cc(F)c(CN5CCS(=O)(=O)CC5)c(F)c4)c3n2)cn1 [Example 111, 5-{8-[4-(1,1-Dioxido-thiomorpholin-4-ylmethyl)-3,5-difluoro-phenyl]-quinoxalin-2-yl}-pyridine-2-carboxylic acid (2-dimethylamino-ethyl)-methyl-amide] |
| 5350 | 320 | > 10000 | > 10000 | 13600 | Cc1cc(-c2cnc3cccc(-c4cc(F)c(CN5CCOCC5)c(F)c4)c3n2)cnc1C(=O)N(C)CCN(C)C [Example 112, 5-[8-(3,5-Difluoro-4-morpholin-4-ylmethyl-phenyl)-quinoxalin-2-yl]-3-methyl-pyridine-2-carboxylic acid (2-dimethylamino-ethyl)-methyl-amide] |
| 615 | 28.5 | 3300 | 1150 | 1940 | Cc1cc(-c2cnc3cccc(-c4cc(F)c(CN5CCS(=O)(=O)CC5)c(F)c4)c3n2)cnc1C(=O)N(C)CCN(C)C [Example 113, 5-{8-[4-(1,1-Dioxido-thiomorpholin-4-ylmethyl)-3,5-difluoro-phenyl]-quinoxalin-2-yl}-3-methyl-pyridine-2-carboxylic acid (2-dimethylamino-ethyl)-methyl-amide] |
| 250 | 11.5 | 1650 | 345 | 6380 | Cc1cc(-c2cccc3ncc(-c4cnn(CCCN5CCOCC5)c4)nc23)ccc1C(=O)N1CCOCC1 [Example 114, (2-Methyl-4-{3-[1-(3-morpholin-4-yl-propyl)-1H-pyrazol-4-yl]-quinoxalin-5-yl}-phenyl)-morpholin-4-yl-methanone] |
| 72.5 | 9.3 | 1600 | 480 | 1440 | COCCn1cc(-c2cnc3cccc(-c4cc(F)c(CN5CCOCC5)c(F)c4)c3n2)cn1 [Example 115, 8-(3,5-Difluoro-4-morpholin-4-ylmethyl-phenyl)-2-[1-(2-methoxy-ethyl)-1H-pyrazol-4-yl]-quinoxaline] |
| 76.5 | < 3 | 1040 | 125 | 60 | Fc1cc(-c2cccc3ncc(-c4cnn(C5CCOCC5)c4)nc23)cc(F)c1CN1CCOCC1 [Example 117, 8-(3,5-Difluoro-4-morpholin-4-ylmethyl-phenyl)-2-[1-(tetrahydro-pyran-4-yl)-1H-pyrazol-4-yl]-quinoxaline] |
| 470 | 25 | > 10000 | 955 | 360 | O=C1CN(Cc2c(F)cc(-c3cccc4ncc(-c5cnn(C6CCOCC6)c5)nc34)cc2F)CCN1 [Example 118, 4-(2,6-Difluoro-4-{3-[1-(tetrahydro-pyran-4-yl)-1H-pyrazol-4-yl]-quinoxalin-5-yl}-benzyl)-piperazin-2-one] |
| 250 | 9.85 | 6400 | 280 | 340 | O=C(c1c(F)cc(-c2cccc3ncc(-c4cnn(C5CCOCC5)c4)nc23)cc1F)N1CCOCC1 [Example 119, (2,6-Difluoro-4-{3-[1-(tetrahydro-pyran-4-yl)-1H-pyrazol-4-yl]-quinoxalin-5-yl}-phenyl)-morpholin-4-yl-methanone] |

| SMILES | IC50 (GST-JAK1(866-1154)) [nM] | IC50 (GST-JAK2(808-1132)) [nM] | IC50 (GST-JAK3(811-1124)) [nM] | IC50 (GST-TYK2(888-1187)) [nM] | IC50 [1] [nM] |
| --- | --- | --- | --- | --- | --- |
| CN1CCN(c2ccc(-c3cnc4cccc(-c5cc(F)c(CN6CCS(=O)(=O)CC6)c(F)c5)c4n3)cn2)CC1 [Example 108, 8-[4-(1,1-Dioxido-thiomorpholin-4-ylmethyl)-3,5-difluoro-phenyl]-2-[6-(4-methyl-piperazin-1-yl)-pyridin-3-yl]-quinoxaline] | 254 | 24.5 | 2400 | 417 | 150 |
